Measurements reported in patent US20240425500A1 (priority 2021, published 2024).

How the values were obtained:
Pythium ultimum = Pythium ultimum / liquid culture (seedling damping off); format: cell-based; settings: Globisporangium ultimum, liquid culture in PDB, 24 °C, 2-3 days after application, read-out: control of Pythium ultimum (inhibition of growth, photometric) compared to untreated control
Outline: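 Mycelia fragments and oospores from fresh liquid culture mixed into potato dextrose broth and added to compound in DMSO. Incubated at 24° C.; growth inhibition read photometrically 2–3 days after application.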

Plasmopara viticola = test: whole plant or invertebrate; format: in vivo; settings: foliar, read-out: control of Plasmopara viticola compared to untreated control
Phytophthora infestans = test: whole plant or invertebrate; format: in vivo; settings: in Solanum lycopersicum, foliar, read-out: control of Phytophthora infestans compared to untreated control

COCN(C(=O)c1cc(C)c2ncc(-c3ccc(NC(=O)OC)nc3)n2c1)c1ccc(F)c(OC)c1 [Compound 94, methyl N-[5-[6-[(4-fluoro-3-methoxy-phenyl)-(methoxymethyl)carbamoyl]-8-methyl-imidazo[1,2-a]pyridin-3-yl]-2-pyridyl]carbamate]
≥ 80%: inhibition at 20 ppm (Pythium ultimum) | pest or weed control at 200 ppm (Plasmopara viticola) | pest or weed control at 200 ppm (Phytophthora infestans)

COC(=O)Nc1ccc(-c2cnc3ccc(C(=O)N(C)c4ccc(F)c(Cl)c4)cn23)cn1 [Compound 113, methyl N-[5-[6-[(3-chloro-4-fluoro-phenyl)-methyl-carbamoyl]imidazo[1,2-a]pyridin-3-yl]-2-pyridyl]carbamate]
≥ 80%: inhibition at 20 ppm (Pythium ultimum) | pest or weed control at 200 ppm (Plasmopara viticola) | pest or weed control at 200 ppm (Phytophthora infestans)

COC(=O)Nc1ccc(-c2cnc3c(OC)cc(C(=O)N(C)c4ccc(Cl)cc4)cn23)cc1 [Compound 37, methyl N-[4-[6-[(4-chlorophenyl)-methyl-carbamoyl]-8-methoxy-imidazo[1,2-a]pyridin-3-yl]phenyl]carbamate]
≥ 80%: inhibition at 20 ppm (Pythium ultimum) | pest or weed control at 200 ppm (Plasmopara viticola) | pest or weed control at 200 ppm (Phytophthora infestans)

CC(=O)Nc1ccc(-c2cnc3ccc(C(=O)N(C)c4ccc(Cl)cc4)cn23)cn1 [Compound 3, 3-(6-acetamido-3-pyridyl)-N-(4-chlorophenyl)-N-methyl-imidazo [1,2-a]pyridine-6-carboxamide]
≥ 80%: inhibition at 20 ppm (Pythium ultimum) | pest or weed control at 200 ppm (Plasmopara viticola) | pest or weed control at 200 ppm (Phytophthora infestans)

CCN(C(=O)c1ccc2ncc(-c3ccc(NC(=O)OC)cc3)n2c1)c1ccc(Cl)cc1 [Compound 32, methyl N-[4-[6-[(4-chlorophenyl)-ethyl-carbamoyl]imidazo[1,2-a]pyridin-3-yl]phenyl]carbamate]
≥ 80%: inhibition at 20 ppm (Pythium ultimum) | pest or weed control at 200 ppm (Plasmopara viticola) | pest or weed control at 200 ppm (Phytophthora infestans)

CCN(C(=O)c1ccc2ncc(-c3ccc(NC(=O)OC)nc3)n2c1)c1ccc(F)c(F)c1 [Compound 105, methyl N-[5-[6-[(3,4-difluorophenyl)-ethyl-carbamoyl]imidazo[1,2-a]pyridin-3-yl]-2-pyridyl]carbamate]
≥ 80%: inhibition at 20 ppm (Pythium ultimum) | pest or weed control at 200 ppm (Plasmopara viticola) | pest or weed control at 200 ppm (Phytophthora infestans)

COC(=O)Nc1ccc(-c2cnc3ccc(C(=O)N(C)c4ccc(F)c(O)c4)cn23)cn1 [Compound 96, methyl N-[5-[6-[(4-fluoro-3-hydroxy-phenyl)-methyl-carbamoyl]imidazo[1,2-a]pyridin-3-yl]-2-pyridyl]carbamate]
≥ 80%: inhibition at 20 ppm (Pythium ultimum) | pest or weed control at 200 ppm (Plasmopara viticola) | pest or weed control at 200 ppm (Phytophthora infestans)

COC(=O)Nc1ccc(-c2cnc3ccc(C(=O)N(CCC#N)c4cccc(OC)c4)cn23)cn1 [Compound 149, methyl N-[5-[6-[2-cyanoethyl-(3-methoxyphenyl)carbamoyl]imidazo[1,2-a]pyridin-3-yl]-2-pyridyl]carbamate]
≥ 80%: inhibition at 20 ppm (Pythium ultimum) | pest or weed control at 200 ppm (Plasmopara viticola) | pest or weed control at 200 ppm (Phytophthora infestans)

COC(=O)Nc1ccc(-c2cnc3ccc(C(=O)N(C)c4ccc(C#N)c(Cl)c4)cn23)cn1 [Compound 107, methyl N-[5-[6-[(3-chloro-4-cyano-phenyl)-methyl-carbamoyl]imidazo[1,2-a]pyridin-3-yl]-2-pyridyl]carbamate]
≥ 80%: inhibition at 20 ppm (Pythium ultimum) | pest or weed control at 200 ppm (Plasmopara viticola) | pest or weed control at 200 ppm (Phytophthora infestans)
